Laboratory results as given in ChEMBL document CHEMBL1201862, “PubChem BioAssay data set” (2004).
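Tested at 5 concentrations; 48 h exposure; 96-well plates; endpoints linearly interpolated, else capped at highest concentration. GI50: concentration for 50% inhibition of growth.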 Calls of active or inactive are those of the source. Cut-off read from the data, not from the text of the source: active = GI50 up to about 1.1 µM and inactive = higher.

Assays:
Assay in all cases: growth of human tumour cells (NCI), 48 h
NCI-H226 = tested on: NCI-H226
OVCAR-3 = tested on: OVCAR-3
786-0 = tested on: 786-0
RXF 393 = tested on: RXF 393
OVCAR-8 = tested on: OVCAR-8
A549 = tested on: A549
HT-29 = tested on: HT-29
UACC-257 = tested on: UACC-257
HCC 2998 = tested on: HCC 2998
SK-OV-3 = tested on: SK-OV-3
KM12 = tested on: KM12
SF-295 = tested on: SF-295
SW-620 = tested on: SW-620
COLO 205 = tested on: COLO 205
BT-549 = tested on: BT-549
CAKI-1 = tested on: CAKI-1
MDA-MB-231 = tested on: MDA-MB-231
EKVX = tested on: EKVX
NCI-H23 = tested on: NCI-H23
PC-3 = tested on: PC-3
SN12C = tested on: SN12C
MDA-N = tested on: MDA-N
Malme-3M = tested on: Malme-3M
HCT-116 = tested on: HCT-116
ACHN = tested on: ACHN
SNB-75 = tested on: SNB-75
MDA-MB-435 = tested on: MDA-MB-435
HOP-92 = tested on: HOP-92
K562 = tested on: K562
SF-539 = tested on: SF-539
DU-145 = tested on: DU-145
IGROV-1 = tested on: IGROV-1
A498 = tested on: A498
T47D = tested on: T47D
NCI-H522 = tested on: NCI-H522
HOP-62 = tested on: HOP-62
Hs-578T = tested on: Hs-578T
UACC-62 = tested on: UACC-62
CCRF-CEM = tested on: CCRF-CEM
OVCAR-5 = tested on: OVCAR-5
U-251 = tested on: U-251
NCI-H460 = tested on: NCI-H460
OVCAR-4 = tested on: OVCAR-4
SF-268 = tested on: SF-268
UO-31 = tested on: UO-31
SK-MEL-5 = tested on: SK-MEL-5
M14 = tested on: M14
MCF7 = tested on: MCF7
TK-10 = tested on: TK-10
SNB-19 = tested on: SNB-19
HL-60 = tested on: HL-60
SK-MEL-28 = tested on: SK-MEL-28

Measured: GI50

CC12CC(C/C1=N/O)C(C)(C)C2 (configuration not stated)
inactive: NCI-H226 > 100 µM | OVCAR-3 > 100 µM | 786-0 > 100 µM | RXF 393 > 100 µM | OVCAR-8 > 100 µM | A549 > 100 µM | HT-29 > 100 µM | UACC-257 > 100 µM | HCC 2998 > 100 µM | SK-OV-3 > 100 µM | KM12 > 100 µM | SF-295 > 100 µM | SW-620 > 100 µM | COLO 205 > 100 µM | BT-549 > 100 µM | CAKI-1 > 100 µM | MDA-MB-231 > 100 µM | EKVX > 100 µM | NCI-H23 > 100 µM | PC-3 > 100 µM | SN12C > 100 µM | MDA-N > 100 µM | Malme-3M > 100 µM | HCT-116 > 100 µM | ACHN > 100 µM | SNB-75 > 100 µM | MDA-MB-435 > 100 µM | HOP-92 > 100 µM | K562 > 100 µM | SF-539 > 100 µM | DU-145 > 100 µM | IGROV-1 > 100 µM | A498 > 100 µM | T47D > 100 µM | NCI-H522 > 100 µM | HOP-62 > 100 µM | Hs-578T > 100 µM | UACC-62 > 100 µM | CCRF-CEM > 100 µM | OVCAR-5 > 100 µM | U-251 > 100 µM | NCI-H460 > 100 µM | OVCAR-4 > 100 µM | SF-268 > 100 µM | UO-31 > 100 µM | SK-MEL-5 > 100 µM | M14 > 100 µM | MCF7 > 100 µM | TK-10 > 100 µM | SNB-19 > 100 µM | HL-60 > 100 µM | SK-MEL-28 > 100 µM
